Test [1] concerns the target T1, TXA2 synthase (Homo sapiens, UniProt P24557).
T1 construct: using microsomal fractions from human platelets as enzyme source; from tissue; host or cells: human platelets, microsomal fraction
T1 sequence (P24557 1-533): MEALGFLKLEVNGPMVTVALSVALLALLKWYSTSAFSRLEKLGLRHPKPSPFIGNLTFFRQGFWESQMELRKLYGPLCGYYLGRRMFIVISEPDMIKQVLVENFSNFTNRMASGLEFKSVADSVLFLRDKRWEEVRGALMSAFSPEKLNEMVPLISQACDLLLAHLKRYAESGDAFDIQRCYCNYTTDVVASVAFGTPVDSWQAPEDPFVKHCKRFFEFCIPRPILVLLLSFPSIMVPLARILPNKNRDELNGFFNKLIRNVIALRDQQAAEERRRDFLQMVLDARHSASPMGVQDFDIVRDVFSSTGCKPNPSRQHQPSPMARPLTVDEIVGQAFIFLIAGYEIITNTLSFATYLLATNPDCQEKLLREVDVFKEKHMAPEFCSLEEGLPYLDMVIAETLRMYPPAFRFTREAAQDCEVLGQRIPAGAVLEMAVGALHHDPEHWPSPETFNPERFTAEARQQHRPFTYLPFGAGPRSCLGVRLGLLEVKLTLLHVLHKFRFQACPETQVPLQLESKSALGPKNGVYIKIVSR
Description: Thromboxane Synthase Inhibition, In Vitro. In kind it is biochemical. As to conditions: human platelet microsomes; for inhibition at 0.1 µM: at 10^-7 M. The method, then: TXA2 synthase activity is measured by following the conversion of ^14 C-prostaglandin endoperoxide (PGH2) to ^14 C-thromboxane A2 (TXA2) using microsomal fractions from human platelets as enzyme source. In the aqueous incubation medium, the TXA2 decomposes rapidly into TXB2. The amount of TXA2 synthase is adjusted so that under the conditions of the assay approximately 80-90% of the substrate, PGH2, is converted to product in control tubes. To prepare ^14 C--PGH2, ^14 C--AA (50-60 mCi/mmole; Rose Chem.) is incubated with sheep seminal vesicular gland microsomes for 1.5 minutes at 37° C. and then the ^14 C--PGH2 is extracted with diethylether, purified on columns of Sephadex LH-20 or silicic acid, and stored in acetone at -70° C. Incubations are done as follows. Sufficient ^14 C--PGH2 to yield a final substrate concentration of 10 μM (30,000 cpm) is added to the incubation tubes and then the acetone is removed under nitrogen. The tubes are placed in an ice bath and then 215 μl of ice cold phosphate buffered saline, 10 μl of ethanol (control) or of test drug in ethanol, and 25 μl of the microsomal suspension are added with mixing in that order as rapidly as possible. The tubes are incubated at 22° C. for 2 minutes, the reaction is stopped and then the radioactive products and the uncoverted PGH2 are extracted and analyzed by thin layer chromatography. […] The amount of ^14 C--PGH2 converted to products was used as a measure of TXA2 synthase activity. Inhibitors were tested initially at a final concentration of 100 μM. Results obtained with representative compounds of the present invention in this assay are summarized hereafter in Table I.

The test system of test [2] is SRS-A-induced constriction of the guinea pig ileum. Description: Guinea Pig Ileum, In Vitro (inhibition of SRS-A-induced constriction). The note with it: Cavia porcellus; SRS-A-induced constriction; in vitro; read-out: Guinea Pig Ileum, IC50. In kind it is cell-based. On the procedure:
The guinea pig ileum bioassay system has been described by Orange and Austen, Adv. Immunol. […] A 1.5 cm segment is removed from animals weighing 300-400 g. and suspended in an organ bath containing 10 ml. of Tyrodes solution with 10^-6 M atropine sulfate and 10^-6 M pyrilamine maleate. […] The SRS-A utilized in this screen is obtained by challenging chopped lung fragments from actively sensitized guinea pigs with egg albumin, in vitro. A dose-response curve to SRS-A challenge is established for the ileum. […] The drug concentration which inhibits, by 50%, the SRS-A-induced constriction of the guinea pig ileum is determined.

The inhibition is the change of the read-out against control, counted positive when it falls. Read a low inhibition as a weak effect. For the compound `CC(C)c1ccc2ncn(/C=C/C(=O)NCCCCc3cccnc3)c(=O)c2c1` [drawing 12], 0.1 µM produced 48% inhibition in test [1]. In test [2], the IC50 amounted to 1 µM.
In the case of `CC(C)c1ccc2ncn(/C=C/C(=O)NCCCCc3ccccn3)c(=O)c2c1` [drawing 17], the IC50 in test [1] (read-out: TXA2 Synthase Inhibition (concentration bound printed in the % column)) and in test [2] was greater than 10 µM throughout.
On to `CC(C)c1ccc2ncn(/C=C/C(=O)NCCCCn3ccnc3)c(=O)c2c1` [drawing 15], for which the inhibition at 0.1 µM in test [1] is 72%. In addition, the IC50 in test [2] is 5 µM.
